Entries after “also recorded” stand apart in the source; their conditions may differ. Ends that are not written are not given here.
Key:
TYR [1] = target: T1, TYR (Agaricus bisporus, UniProt C7FF04); design: method as in 2 sources, one per row (each row's own in cited_ref): ref [48] = [48]; PMID 34313364; doi:10.1002/ardp.202100204; 48. Krobthong S. Yingchutrakul Y. Samutrtai P. Choowongkomon K. The C-terminally shortened analogs of a hexapeptide derived from Lingzhi hydrolysate with enhanced tyrosinase-inhibitory activity Arch. ||| ref [16],[17] = [16]; PMID 33459057; doi:10.1080/10408398.2021.1871724; 16. Peng Z.Y. Wang G.C. Zeng Q.H. Li Y.F. Liu H.Q. Wang J.J. Zhao Y. A systematic review of synthetic tyrosinase inhibitors and their structure-activity relationship Crit. Rev. Food Sci. Nutr. 2021 62 || [17]; PMID 35603815; doi:10.1111/1750-3841.16160; 17. Xue W. Liu X. Zhao W. Yu Z. Identification and molecular mechanism of novel tyrosinase inhibitory peptides from collagen J. Food Sci. 2022 87 2744 2756 10.1111/1750-3841.16160 35603815; conditions: ref [16],[17]; cited from earlier work
T1 construct: purchased Shanghai Yuanye Bio-Technology Co., Ltd. (Shanghai, China)
Excerpt: Bioactive peptides are functional peptide fragments produced during the hydrolysis, cleavage, or maturation of proteins, and their relative molecular mass is usually less than 6000 Da.

[2] = ref [47]; cited from earlier work
Excerpt: Guo isolated and purified 29 antioxidant peptides from RJ and verified their antioxidant activity.

TYR [3] = target: T1, TYR; test: TYR inhibitory activity (L-DOPA oxidation); assay type: biochemical
Protocol: Determination and calculation methods of TYR inhibitory activity were referred to the detection method of Ji and modified slightly. Briefly, the TYR was dissolved to prepare solutions using 0.05 M phosphate buffer saline (pH 6.8). Then, the mixed 40 μL of ERJ, 2 U/mL 100 μL of TYR, and 1.0 mmol/L 100 μL of L-DOPA were added in a 96-well plate, and the absorbance at 475 nm was measured immediately after 10 s and recorded as A1. The reaction system was incubated for 190 s at 25 °C and measured again and recorded as A2. We repeated the above steps by replacing the ERJ with buffer and measuring the absorbance value after 10 s, recorded as A3, and the absorbance value after 190 s as A4. The inhibition rate of ERJ on TYR was calculated according to the following equation:(1) Inhibition percentage (%)=(1−ΔA/ΔB) × 100% where, ΔA = A2 − A1, ΔB = A4 − A3.

[4] = tested on: fungus, yeast, and bacteria; conditions: ref [45],[46]; cited from earlier work

T1 sequence (C7FF04 2-392): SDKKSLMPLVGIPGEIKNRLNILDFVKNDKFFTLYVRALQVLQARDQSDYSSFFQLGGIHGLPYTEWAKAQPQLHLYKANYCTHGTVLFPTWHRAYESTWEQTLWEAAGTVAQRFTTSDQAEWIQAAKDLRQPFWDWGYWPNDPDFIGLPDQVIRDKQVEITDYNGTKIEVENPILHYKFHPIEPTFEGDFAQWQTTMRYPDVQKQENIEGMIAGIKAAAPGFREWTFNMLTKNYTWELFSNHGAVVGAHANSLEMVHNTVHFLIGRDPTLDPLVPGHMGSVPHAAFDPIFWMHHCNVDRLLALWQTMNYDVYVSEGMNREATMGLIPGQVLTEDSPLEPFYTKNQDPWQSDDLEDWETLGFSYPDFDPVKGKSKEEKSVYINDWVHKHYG

Q: For OC[C@H]1O[C@@H](Oc2ccc(O)cc2)[C@H](O)[C@@H](O)[C@@H]1O [arbutin], which “inhibitory effect on TYR activity (in words), literature” value (TYR [1]) is on record?
A: The value was “strong inhibitory effects”.

Q: For Oc1ccc(O)cc1 [hydroquinone], which “inhibitory effect on TYR activity (in words), literature” value (TYR [1]) is on record?
A: Its value is “strong inhibitory effects”.

Q: Which “free radical scavenging ability” value [2] does the source give for Arg-Tyr here?
A: The value was “strong free radical scavenging ability”.

Q: With IIPFIF [IIPFIF] as the molecule, how does the “TYR inhibitory activity (in words)” value (TYR [3]) read?
A: The value was “maximum activity; also recorded: highest of the three peptides”.

Q: With ILFTLL [ILFTLL] as the molecule, how does the “TYR inhibitory activity (in words)” value (TYR [3]) read?
A: Its value is “lowest activity; also recorded: lowest of the three peptides”.

Q: For Tyr-Tyr, which “free radical scavenging ability” value [2] is on record?
A: Its value is “strong free radical scavenging ability”.

B1: MRJP-2: major royal jelly protein (protein, UniProt O77061 18-452, looked up)
Major royal jelly protein 2: AIVRENSPRNLEKSLNVIHEWKYFDYDFGSEERRQAAIQSGEYDHTKNYPFDVDQWRDKTFVTILRYDGVPSTLNVISGKTGKGGRLLKPYPDWSFAEFKDCSKIVSAFKIAIDKFDRLWVLDSGLVNRTVPVCAPKLHVFDLKTSNHLKQIEIPHDIAVNATTGKGGLVSLAVQAIDLANTLVYMADHKGDALIVYQNADDSFHRLTSNTFDYDPRYAKMTIDGESFTLKNGICGMALSPVTNNLYYSPLASHGLYYVNTAPFMKSQFGENNVQYQGSEDILNTQSLAKAVSKNGVLFVGLVGNSAVGCWNEHQSLQRQNLEMVAQNDRTLQMIAGMKIKEELPHFVGSNKPVKDEYMLVLSNRMQKIVNDDFNFDDVNFRILGANVKELIRNTHCVNNNQNDNIQNTNNQNDNNQKNNKKNANNQKNNNQNDN
Q: For B1, which antibacterial properties [4] is on record?
A: The antibacterial properties was “have antibacterial properties”.

B2: MRJP-4: major royal jelly protein (protein, UniProt Q17061 16-464, looked up)
Major royal jelly protein 4: QNIRGGVVRENSSGKNLTNTLNVIHKWKYLDYDFDNDERRQAAIQSGEYDRTKNYPLDVDQWHNKTFLAVIRYNGVPSSLNVVSDKTGNGGRLLQPYPDWSFAKYEDCSGIVSAHKIAIDEYERLWVLDSGLVNNTQPMCSPKLFAFDLNTSQLLKQVEIPHDVATTGKGELVSLTVQAMDSTNTMVYMVDNKNTLIIYQNADDSFHRLSSHTLNHNSDKMSDQQENLTLKEVDNKVYGMALSPVTHNLYYNSPSSENLYYVNTESLMKSENQGNDVQYERVQDVFDSQLTVKAVSKNGVLLFGLANNTLSCWNEHQSLDRQNIDVVARNEDTLQMVVSMKIKQNVPQSGRVNNTQRNEYLLALSDRNQNVLNNDLNLEHVNFQILGANVNDLIRNSRCANFDNQDNNHYNHNHNQARHSSKSDNQNNNQHNDQAHHSSKSNNRHNNND
Q: Which antibacterial properties [4] does the source give for B2 here?
A: Its antibacterial properties is “have antibacterial properties”.
